Source: patent publication US20160367623A1, “AGONISTS OF GUANYLATE CYCLASE USEFUL FOR THE TREATMENT OF GASTROINTESTINAL DISORDERS, INFLAMMATION, CANCER AND OTHER DISORDERS” (priority 2015, published 2016)
Bridge positions count the residues as written; N and C are the ends. Ends that are not written are not given here.

Tested on: patients with chronic idiopathic constipation (CIC)
Experiment: Second phase 3 CIC trial: change from baseline in stool consistency (BSFS)
Type: in vivo, human
Conditions: 6 mg
[1] = Post-Treatment Week 14, ITT Population-Excluding Duplicate Patients
[2] = Week 1, All Randomized (includes Duplicate Patients)
[3] = Week 1, ITT Population-Excluding Duplicate Patients
[4] = Week 2, All Randomized (includes Duplicate Patients)
[5] = Week 2, ITT Population-Excluding Duplicate Patients
[6] = Week 3, All Randomized (includes Duplicate Patients)
[7] = Week 3, ITT Population-Excluding Duplicate Patients
[8] = Week 4, All Randomized (includes Duplicate Patients)
[9] = Week 4, ITT Population-Excluding Duplicate Patients
[10] = Week 5, All Randomized (includes Duplicate Patients)
[11] = Week 5, ITT Population-Excluding Duplicate Patients
[12] = Week 6, All Randomized (includes Duplicate Patients)
[13] = Week 6, ITT Population-Excluding Duplicate Patients
[14] = Week 7, All Randomized (includes Duplicate Patients)
[15] = Week 7, ITT Population-Excluding Duplicate Patients
[16] = Week 8, All Randomized (includes Duplicate Patients)
[17] = Week 8, ITT Population-Excluding Duplicate Patients

With “Asn^1-Asp^2-Glu^3-Cys^4-Glu^5-Leu^6-Cys^7-Val^8-Asn^9-Val^10-Ala^11-Cys^12-Thr^13-Gly^14-Cys^15-Leu^16 (NDECELCVNVACTGCL; disulfide 4-12, 7-15) [Plecanatide, uroguanylin analogue, guanylate cyclase-C agonist; (C4:C12, C7:C15) bicycle peptide]” the “Change from Baseline in Stool Consistency, LS Mean (SE)” value (“Change from Baseline … (SE)” below) [1] was 1.07 (0.074), the “Change from Baseline in Stool Consistency, Mean (SD)” value (“Change from Baseline … (SD)” for short) [1] was 1.05 (1.358) and the “Change from Baseline in Stool Consistency, Difference from Placebo” value (“Change from Baseline … Difference from Placebo” below) [2] was 0.84. The “Change from Baseline … (SE)” value [2] was 1.41 (0.071), the “Change from Baseline … (SD)” value [2] was 1.43 (1.501) and the “Change from Baseline … Difference from Placebo” value (Week 1, ITT Population) was 0.84. For the same substance, the “Change from Baseline … (SE)” value (Week 1, ITT Population) was 1.44 (0.073), the “Change from Baseline … (SD)” value (Week 1, ITT Population) was 1.45 (1.501) and the “Change from Baseline … Difference from Placebo” value [3] was 0.86. For the same substance, the “Change from Baseline … (SE)” value [3] was 1.47 (0.073), the “Change from Baseline … (SD)” value [3] was 1.47 (1.495) and the “Change from Baseline … Difference from Placebo” value [4] was 0.67. For the same substance, the “Change from Baseline … (SE)” value [4] was 1.36 (0.071), the “Change from Baseline … (SD)” value [4] was 1.36 (1.560) and the “Change from Baseline … Difference from Placebo” value (Week 2, ITT Population) was 0.68. The “Change from Baseline … (SE)” value (Week 2, ITT Population) was 1.39 (0.073), the “Change from Baseline … (SD)” value (Week 2, ITT Population) was 1.38 (1.560) and the “Change from Baseline … Difference from Placebo” value [5] was 0.68. For the same substance, the “Change from Baseline … (SE)” value [5] was 1.41 (0.074), the “Change from Baseline … (SD)” value [5] was 1.39 (1.562) and the “Change from Baseline … Difference from Placebo” value [6] was 0.53. The “Change from Baseline … (SE)” value [6] was 1.41 (0.072), the “Change from Baseline … (SD)” value [6] was 1.44 (1.479) and the “Change from Baseline … Difference from Placebo” value (Week 3, ITT Population) was 0.54. The “Change from Baseline … (SE)” value (Week 3, ITT Population) was 1.44 (0.074), the “Change from Baseline … (SD)” value (Week 3, ITT Population) was 1.46 (1.480) and the “Change from Baseline … Difference from Placebo” value [7] was 0.55. The “Change from Baseline … (SE)” value [7] was 1.46 (0.074), the “Change from Baseline … (SD)” value [7] was 1.47 (1.485) and the “Change from Baseline … Difference from Placebo” value [8] was 0.54. The “Change from Baseline … (SE)” value [8] was 1.41 (0.071), the “Change from Baseline … Difference from Placebo” value (Week 4, ITT Population) was 0.52 and the “Change from Baseline … (SE)” value (Week 4, ITT Population) was 1.42 (0.074). For the same substance, the “Change from Baseline … (SD)” value (Week 4, ITT Population) was 1.42 (1.603), the “Change from Baseline … Difference from Placebo” value [9] was 0.53 and the “Change from Baseline … (SE)” value [9] was 1.44 (0.074). For the same substance, the “Change from Baseline … (SD)” value [9] was 1.42 (1.608), the “Change from Baseline … Difference from Placebo” value [10] was 0.67 and the “Change from Baseline … (SE)” value [10] was 1.52 (0.072). For the same substance, the “Change from Baseline … Difference from Placebo” value (Week 5, ITT Population) was 0.68, the “Change from Baseline … (SE)” value (Week 5, ITT Population) was 1.55 (0.074) and the “Change from Baseline … (SD)” value (Week 5, ITT Population) was 1.57 (1.594). For the same substance, the “Change from Baseline … Difference from Placebo” value [11] was 0.69, the “Change from Baseline … (SE)” value [11] was 1.58 (0.075) and the “Change from Baseline … (SD)” value [11] was 1.58 (1.598). For the same substance, the “Change from Baseline … Difference from Placebo” value [12] was 0.70, the “Change from Baseline … (SE)” value [12] was 1.51 (0.072) and the “Change from Baseline … Difference from Placebo” value (Week 6, ITT Population) was 0.72. The “Change from Baseline … (SE)” value (Week 6, ITT Population) was 1.55 (0.074), the “Change from Baseline … (SD)” value (Week 6, ITT Population) was 1.57 (1.517) and the “Change from Baseline … Difference from Placebo” value [13] was 0.74. The “Change from Baseline … (SE)” value [13] was 1.57 (0.075), the “Change from Baseline … (SD)” value [13] was 1.58 (1.520) and the “Change from Baseline … Difference from Placebo” value [14] was 0.64. For the same substance, the “Change from Baseline … (SE)” value [14] was 1.50 (0.072), the “Change from Baseline … Difference from Placebo” value (Week 7, ITT Population) was 0.64 and the “Change from Baseline … (SE)” value (Week 7, ITT Population) was 1.54 (0.074). For the same substance, the “Change from Baseline … (SD)” value (Week 7, ITT Population) was 1.56 (1.540), the “Change from Baseline … Difference from Placebo” value [15] was 0.67 and the “Change from Baseline … (SE)” value [15] was 1.56 (0.075). For the same substance, the “Change from Baseline … (SD)” value [15] was 1.57 (1.544), the “Change from Baseline … Difference from Placebo” value [16] was 0.57 and the “Change from Baseline … (SE)” value [16] was 1.48 (0.072). For the same substance, the “Change from Baseline … Difference from Placebo” value (Week 8, ITT Population) was 0.58, the “Change from Baseline … (SE)” value (Week 8, ITT Population) was 1.51 (0.074) and the “Change from Baseline … (SD)” value (Week 8, ITT Population) was 1.53 (1.539). For the same substance, the “Change from Baseline … Difference from Placebo” value [17] was 0.60, the “Change from Baseline … (SE)” value [17] was 1.53 (0.075) and the “Change from Baseline … (SD)” value [17] was 1.54 (1.543). The “Change from Baseline … Difference from Placebo” value (Week 9, All Randomized (includes Duplicate Patients)) was 0.67.
